Test [1] relates to HL-60 cells. Briefly: Inhibition of HL-60 leukemic cell line proliferation (WST-1). It is filed as cell-based, human. The note with it: cytotoxicity on HL-60 cells, two days incubation, WST-1 read-out. As for the experimental part:
HL-60 cell line, a human promyelocytic leukemia (ATCC; CCL-240) cell line, was grown in RPMI-1640 medium (Lonza, Belgium) supplemented with 10% fetal calf serum (Hyclone, US) and antibiotics. Exponential growing phase cells were seed in flat bottom 96-well microplates (TTP, Switzerland) at 50000 cells per well in 220 μl of medium with compounds (in different concentrations) and incubated for two days at 37° C., 5% CO2. After incubation, 100 μl of supernatant were removed and 10 μl of WST-1 (Roche, Switzerland) were added. After 2 hour incubation at 37° C., 5% CO2, optical densities were measured at 450 nm. Proliferation is calculated with respect of control points (no compound and treatment with Triton X100 to have maximum and minimum proliferation data). The IC50 was determined from a graph with at least four points, each derived from the mean of at least 2 experiments. […] The results are shown in Table 2 for a number of compounds.

In test [2] the test system is HSB-2 cells. Briefly: Inhibition of HSB-2 leukemic cell line proliferation (WST-1). It is filed as cell-based, human. The note with it: cytotoxicity on HSB-2 cells, two days incubation, WST-1 read-out. Put shortly:
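HSB-2 human ALL cells, 50000/well in RPMI-1640 + 10% FCS, exposed to compounds 2 days at 37 °C, then WST-1 2 h, OD 450 nm. Proliferation scaled between untreated (max) and Triton X100 (min) controls; IC50 from ≥4-point curves, each point mean of ≥2 experiments.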
On the technique in general: Tetrazolium dyes change colour on reduction, which living cells bring about.

The term IC50 denotes the concentration at which inhibition is half-maximal. For `Nc1nc(N2CCN(C(=O)COc3ccc(Cl)cc3)CC2)c2nc(-c3cccc(Cl)c3)[nH]c2n1` [Example 393, 1-(4-(2-amino-8-(3-chlorophenyl)-9H-purin-6-yl)piperazin-1-yl)-2-(4-chlorophenoxy)ethanone], the IC50 was 9.18 µM in test [1] (Homo sapiens, 48 h) and 1.38 µM in test [2] (Homo sapiens, HSB2, 48 h).

For the compound `COc1ccc(OCC(=O)N2CCN(c3nc(N)nc4sc(-c5ccccc5)cc34)CC2)cc1` [Example 369, 1-(4-(2-amino-6-phenylthieno[2,3-d]pyrimidin-4-yl)piperazin-1-yl)-2-(4-methoxyphenoxy)ethanone], the IC50 in test [1] (Homo sapiens, 48 h) was found to be 6.05 µM; in test [2] (Homo sapiens, HSB2, 48 h), 5.87 µM.

As for `Nc1nc(N2CCN(C(=O)COc3ccccc3)CC2)c2nc(-c3ccc(F)cc3)[nH]c2n1` [Example 401, 1-(4-(2-amino-8-(4-fluorophenyl)-9H-purin-6-yl)piperazin-1-yl)-2-phenoxyethanone], the IC50 is more than 10 µM in test [1] (Homo sapiens, 48 h) and more than 10 µM in test [2] (Homo sapiens, HSB2, 48 h).

Take `Nc1nc(N2CCN(C(=O)CCc3ccc(F)cc3)CC2)c2nc(-c3ccc(F)cc3)sc2n1` [Example 236, 1-(4-(5-amino-2-(4-fluorophenyl)thiazolo[5,4-d]pyrimidin-7-yl)piperazin-1-yl)-3-(4-fluorophenyl)propan-1-one]: the IC50 in test [1] (Homo sapiens, 48 h) was 8.2 µM; in test [2] (Homo sapiens, HSB2, 48 h) it was 5.57 µM.

On to `Nc1nc(N2CCN(C(=O)COc3ccc(Cl)cc3)CC2)c2nc(C3CCCCC3)sc2n1` [Example 120, 5-amino-7-[4-(4-chlorophenoxyacetyl)piperazin-1-yl]-2-cyclohexylthiazolo[5,4-d]pyrimidine], for which the IC50 in test [1] (Homo sapiens, 48 h) was more than 10 µM; in test [2] (Homo sapiens, HSB2, 48 h), 4.87 µM.

On to `CSc1nc2c(N3CCN(C(=O)COc4ccc(Cl)cc4)CC3)nc(N)nc2[nH]1` [Example 424, 1-(4-(2-amino-8-(methylthio)-9H-purin-6-yl)piperazin-1-yl)-2-(4-chlorophenoxy)ethanone], for which the IC50 in test [1] (Homo sapiens, 48 h) turned out to be 0.01 µM; in test [2] (Homo sapiens, HSB2, 48 h), 4.6 µM.

Take `Nc1nc(N2CCN(C(=O)COc3ccc(Cl)cc3)CC2)c2nc(-c3ccc(Cl)cc3)sc2n1` [Example 123, 5-amino-7-[4-(4-chlorophenoxyacetyl)piperazin-1-yl]-2-(4-chlorophenyl)thiazolo[5,4-d]pyrimidine]: the IC50 was 1.2 µM in test [1] (Homo sapiens, 48 h) and 3.73 µM in test [2] (Homo sapiens, HSB2, 48 h).

Regarding `COc1ccc(OCC(=O)N2CCN(c3nc(N)nc4sc(-c5ccc(Cl)cc5)nc34)CC2)cc1` [Example 270, 1-(4-(5-amino-2-(4-chlorophenyl)thiazolo[5,4-d]pyrimidin-7-yl)piperazin-1-yl)-2-(4-methoxyphenoxy)ethanone], the IC50 in test [1] (Homo sapiens, 48 h) turned out to be 0.45 µM; in test [2] (Homo sapiens, HSB2, 48 h), 0.18 µM.

`Nc1nc(N2CCN(C(=O)COc3cccc(Cl)c3)CC2)c2nc(-c3ccc(F)cc3)sc2n1` [Example 214, 1-(4-(5-amino-2-(4-fluorophenyl)thiazolo[5,4-d]pyrimidin-7-yl)piperazin-1-yl)-2-(3-chlorophenoxy)ethanone]: the half-inhibitory concentration (IC50) stood at 6.02 µM in test [1] (Homo sapiens, 48 h) and 0.73 µM in test [2] (Homo sapiens, HSB2, 48 h).

As to `Nc1nc(N2CCN(C(=O)COc3ccc(Cl)cc3)CC2)c2nc(-c3ccc(C(F)(F)F)cc3)[nH]c2n1` [Example 394, 1-(4-(2-amino-8-(4-(trifluoromethyl)phenyl)-9H-purin-6-yl)piperazin-1-yl)-2-(4-chlorophenoxy)ethanone], the IC50 in test [1] (Homo sapiens, 48 h) was 8.78 µM; in test [2] (Homo sapiens, HSB2, 48 h), 7.37 µM.

As for `Cc1cccc(NC(=O)N2CCN(c3nc(N)nc4sc(CCc5ccc(F)cc5)nc34)CC2)c1` [Example 133, 5-amino-2-[2-(4-fluorophenyl)ethyl]-7-(4-m-tolylcarbamoylpiperazin-1-yl)-thiazolo[5,4-d]pyrimidine], the 50% inhibitory concentration (IC50) in test [1] (Homo sapiens, 48 h) is more than 10 µM; in test [2] (Homo sapiens, HSB2, 48 h), 12.3 µM.

Take `Nc1nc(N2CCN(C(=O)COc3ccc(Cl)cc3)CC2)c2cc(-c3ccc(F)cc3)sc2n1` [Example 326, 1-(4-(2-amino-6-(4-fluorophenyl)thieno[2,3-d]pyrimidin-4-yl)piperazin-1-yl)-2-(4-chlorophenoxy)ethanone]: the IC50 in test [1] (Homo sapiens, 48 h) was more than 10 µM; in test [2] (Homo sapiens, HSB2, 48 h), 8.97 µM.

Take `Nc1nc(N2CCN(C(=O)COc3ccc(Cl)cc3)CC2)c2ccsc2n1` [Example 351, 1-(4-(2-aminothieno[2,3-d]pyrimidin-4-yl)piperazin-1-yl)-2-(4-chlorophenoxy)ethanone]: the IC50 in test [1] (Homo sapiens, 48 h) was 5.08 µM; in test [2] (Homo sapiens, HSB2, 48 h), 1.7 µM.

As for `COc1ccc(CNC(=O)N2CCN(c3nc(N)nc4sc(-c5cccnc5)nc34)CC2)cc1` [Example 278, 4-(5-amino-2-(pyridin-3-yl)thiazolo[5,4-d]pyrimidin-7-yl)-N-(4-methoxybenzyl)piperazine-1-carboxamide], the half-inhibitory concentration (IC50) is 0.68 µM in test [1] (Homo sapiens, 48 h) and 0.75 µM in test [2] (Homo sapiens, HSB2, 48 h).

For the compound `Nc1nc(N2CCN(C(=O)COc3ccc(Cl)cc3)CC2)c2nc(CCc3ccccc3)oc2n1` [Example 189, 5-amino-2-(2-phenylethyl)-7-[4-(4-chlorophenoxyacetyl)piperazin-1-yl]oxazolo[5,4-d]pyrimidine], the half-inhibitory concentration (IC50) in test [1] (Homo sapiens, 48 h) is more than 10 µM; in test [2] (Homo sapiens, HSB2, 48 h), more than 10 µM.

Turning to `Nc1nc(N2CCN(C(=O)COc3ccc(Cl)cc3)CC2)c2nc(SCc3ccccc3)[nH]c2n1` [Example 426, 1-(4-(2-amino-8-(benzylthio)-9H-purin-6-yl)piperazin-1-yl)-2-(4-chlorophenoxy)ethanone], the IC50 in test [1] (Homo sapiens, 48 h) is more than 10 µM; in test [2] (Homo sapiens, HSB2, 48 h), more than 10 µM.

With `CSc1nc2c(N3CCN(C(=O)COc4ccc(Cl)cc4)CC3)nc(N)nc2n1C` [Example 428, 1-(4-(2-amino-9-methyl-8-(methylthio)-9H-purin-6-yl)piperazin-1-yl)-2-(4-chlorophenoxy)ethanone], the IC50 in test [1] (Homo sapiens, 48 h) came to 1.59 µM; in test [2] (Homo sapiens, HSB2, 48 h), 0.75 µM.

On to `CCCc1nc2c(N3CCN(C(=O)COc4ccc(Cl)cc4)CC3)nc(N)nc2[nH]1` [Example 397, 1-(4-(2-amino-8-propyl-9H-purin-6-yl)piperazin-1-yl)-2-(4-chlorophenoxy)ethanone], for which the IC50 in test [1] (Homo sapiens, 48 h) was 1.26 µM; in test [2] (Homo sapiens, HSB2, 48 h), 4.51 µM.

For `Nc1nc(N2CCN(C(=O)COc3ccc(Cl)cc3)CC2)c2nc(-c3ccc[n+]([O-])c3)sc2n1` [Example 121b, 5-amino-7-[4-(4-chlorophenoxyacetyl)piperazin-1-yl]-2-(N-oxopyridine-3-yl)thiazolo[5,4-d]pyrimidine], the figures for the IC50 in test [1] and in test [2] were 4.89 µM and 6.19 µM, respectively.

For `Nc1nc(N2CCN(C(=O)COc3ccc(F)cc3)CC2)c2nc(-c3ccco3)sc2n1` [Example 209, 1-(4-(5-amino-2-(furan-2-yl)thiazolo[5,4-d]pyrimidin-7-yl)piperazin-1-yl)-2-(4-fluorophenoxy)ethanone], the IC50 was found to be 0.57 µM in test [1] (Homo sapiens, 48 h) and 0.51 µM in test [2] (Homo sapiens, HSB2, 48 h).

On to `Nc1nc(N2CCCN(C(=O)COc3ccc(Cl)cc3)CC2)c2nc(-c3ccc(F)cc3)[nH]c2n1` [Example 421, 1-(4-(2-amino-8-(4-fluorophenyl)-9H-purin-6-yl)-1,4-diazepan-1-yl)-2-(4-chlorophenoxy)ethanone], for which the IC50 was more than 10 µM in test [1] (Homo sapiens, 48 h) and more than 10 µM in test [2] (Homo sapiens, HSB2, 48 h).

For the compound `N#Cc1ccc(NC(=O)N2CCN(c3nc(N)nc4sc(-c5ccc(F)cc5)nc34)CC2)cc1` [Example 216, 4-(5-amino-2-(4-fluorophenyl)thiazolo[5,4-d]pyrimidin-7-yl)-N-(4-cyanophenyl)piperazine-1-carboxamide], the IC50 in test [1] (Homo sapiens, 48 h) was found to be 6.41 µM; in test [2] (Homo sapiens, HSB2, 48 h) it was 4.9 µM.

Turning to `Nc1nc(N2CCN(C(=O)COc3ccc(Cl)cc3)CC2)c2nc(-c3ccc(Br)cc3)[nH]c2n1` [Example 391, 1-(4-(2-amino-8-(4-bromophenyl)-9H-purin-6-yl)piperazin-1-yl)-2-(4-chlorophenoxy)ethanone], the IC50 in test [1] (Homo sapiens, 48 h) is 3.65 µM; in test [2] (Homo sapiens, HSB2, 48 h), 2.14 µM.

`CCCSc1nc2c(N3CCN(C(=O)COc4ccc(Cl)cc4)CC3)nc(N)nc2[nH]1` [Example 425, 1-(4-(2-amino-8-(propylthio)-9H-purin-6-yl)piperazin-1-yl)-2-(4-chlorophenoxy)ethanone]: the 50% inhibitory concentration (IC50) in test [1] (Homo sapiens, 48 h) stood at 8.83 µM; in test [2] (Homo sapiens, HSB2, 48 h), 4.57 µM.

For the compound `C[S+]([O-])c1nc2c(N3CCN(C(=O)COc4ccc(Cl)cc4)CC3)nc(N)nc2s1` (centres unmarked) [Example 126, 5-amino-7-[4-(4-chlorophenoxyacetyl)piperazin-1-yl]-2-methylsulfinyl-thiazolo[5,4-d]pyrimidine], the IC50 in test [1] (Homo sapiens, 48 h) came to 3.82 µM; in test [2] (Homo sapiens, HSB2, 48 h), 5.47 µM.

Take `Nc1nc(N2CC[C@@H](NC(=O)c3ccc(Cl)cc3)C2)c2cc(-c3ccc(F)cc3)sc2n1` [Example 341, (R)—N-(1-(2-amino-6-(4-fluorophenyl)thieno[2,3-d]pyrimidin-4-yl)pyrrolidin-3-yl)-4-chlorobenzamide]: the IC50 was more than 10 µM in test [1] (Homo sapiens, 48 h) and more than 10 µM in test [2] (Homo sapiens, HSB2, 48 h).

For the compound `Nc1nc(N2CCN(CC(=O)Nc3cccnc3)CC2)c2nc(-c3ccc(F)cc3)[nH]c2n1` [Example 412], the IC50 in test [1] and in test [2] was more than 10 µM throughout.

Turning to `Nc1nc(N2CCN(C(=O)COc3ccc(Cl)cc3)CC2)c2nc(C3CC3)sc2n1` [Example 119, 5-amino-2-cyclopropyl-7-[4-(4-chlorophenoxyacetyl)piperazin-1-yl]-thiazolo[5,4-d]pyrimidine], the IC50 in test [1] (Homo sapiens, 48 h) stood at 3.81 µM; in test [2] (Homo sapiens, HSB2, 48 h) it was 3.03 µM.

Source of the values: patent publication US9573966B2, “Anti-cancer activity of novel bicyclic heterocycles” (Katholieke Universiteit Leuven, K.U.Leuven R&D, priority 2010, dated 2017).
